Measured values reported in patent US20050288355A1, “Combination therapy wherein a serotonin reuptake inhibitor is used” (priority 2002, published 2005).

Legend:
[1] = tested on: 5-HT levels in rat ventral hippocampus; assay: Microdialysis of brain serotonin levels, ventral hippocampus; assay type: in vivo
Protocol: (§1) Male albino rats of a Wistar-derived strain (285-320 g; Harlan, Zeist, The Netherlands) were used for the experiments. Upon surgery, rats were housed individually in plastic cages (35×35×40 cm), and had free access to food and water. Animals were kept on a 12 h light schedule (light on 7:00 a.m.). The experiments are concordant with the declarations of Helsinki and were approved by the animal care committee of the faculty of mathematics and natural science of the University of Groningen.
Microdialysis of brain serotonin levels was performed using home made I-shaped probes, made of polyacrylonitrile/sodium methyl sulfonate copolymer dialysis fiber (i.d. 220 μn, o.d. […], AN 69, Hospal, Italy). Preceding surgery rats were anaesthetised using isoflurane (O2/N2O; 300/300 ml/min). Lidocaine-HCl, 10% (m/v) was used for local anaesthesia. Rats were placed in a stereotaxic frame (Kopf, USA), and probes were inserted into Ventral Hippcampus (V. Hippo, L+4.8 mm, IA: +3.7 mm, V: −8.0 mm) and median prefrontal cortex (PFC, L −0.9 mm; AP: +3.5 mm relative to bregma; V: −6.0 mm (Paxinos and Watson, 1982). After insertion, probes were secured with dental cement.
Rats were allowed to recover for at least 24 h. Probes were perfused with artificial cerebrospinal fluid containing 147 mM NaCl, 3.0 mM KCl, 1.2 mM CaCl2, and 1.2 mM MgCl2, at a flow-rate of 1.5 μl/min (Harvard apparatus, South Natick, Ma., USA). 15 minute microdialysis samples were collected in HPLC vials containing 7.5 μl 0.02 M acetic acid for serotonin analysis.
(§2) Twenty-μl microdialysate samples were injected via an autoinjector (CMA/200 refrigerated microsampler, CMA, Sweden) onto a 100×2.0 mm C18 Hypersil 3 μm column (Bester, Amstelveen, the Netherlands) and separated with a mobile phase consisting of 5 g/L di-ammoniumsulfate, 500 mg/L EDTA, 50 mg/L heptane sulphonic acid, 4% methanol v/v, and 30 μl/L of triethylamine, pH 4.65 at a flow of 0.4 ml/min (Shimadzu LC-10 AD). 5-HT was detected amperometrically at a glassy carbon electrode at 500 mV vs Ag/AgCl (Antec Leyden, Leiden, The Netherlands). The detection limit was 0.5 fmol 5-HT per 20 μl sample (signal to noise ratio 3).
Four consecutive microdialysis samples with less then 20% variation were taken as control and set at 100%. Data are presented as percentages of control level (mean±S.E.M.) in time. Statistical analysis was performed using Sigmastat for Windows (SPSS, Jandel Corporation). Treatments were compared versus controls using two way analysis of variance (ANOVA) for repeated measurements, followed by Student Newman Keuls test. Level of significance level was set at p<0.05.

[2] = tested on: 5-HT levels in rat prefrontal cortex; assay: Microdialysis of brain serotonin levels, prefrontal cortex; assay type: in vivo; settings: PFC; 2 mg/kg s.c. co-administered with citalopram 10 μmol/kg s.c.; P=0.048
Protocol: as §1
Microdialysis of brain serotonin levels was performed using home made I-shaped probes, made of polyacrylonitrile/sodium methyl sulfonate copolymer dialysis fiber (i.d. 220 μn, o.d. 0.31 μm, AN 69, Hospal, Italy). Preceding surgery rats were anaesthetised using isoflurane (O2/N2O; 300/300 ml/min). Lidocaine-HCl, 10% (m/v) was used for local anaesthesia. […]
as §2, with “The detection limit was 0.5 fmol 5-HT per 20 μl sample (signal to noise ratio 3).” left out

[3] = tested on: 5-HT in the raphe nuclei / forebrain; settings: cited from earlier work

## NCC(O)(CS(=O)(=O)O)c1ccc(Cl)cc1 (centres unmarked) [2-hydroxysaclofen]
[1]; 2 mg/kg s.c. simultaneous with citalopram 10 μmol/kg s.c., P=0.046
  effects on 5-HT levels with citalopram: augmented effects on 5-HT levels

## NCCCP(=O)(O)CC1CCCCC1 [CGP 46381]
[1]; 0.5 mg/kg co-administered with citalopram 10 μmol/kg, treatment p=0.04
  response on 5-HT levels with citalopram: augmented response
[1]; 2 mg/kg co-administered with citalopram 10 μmol/kg, treatment p=0.10, treatment vs. time 0.001
  response on 5-HT levels with citalopram: augmented response
[1]; 10 mg/kg s.c., without citalopram
  effect on 5-HT levels, given alone: did not show any effect

## NCC(CP(=O)(O)O)c1ccc(Cl)cc1 (centres unmarked) [Phaclofen]
[2]
  5-HT levels compared to citalopram treatment alone: enhanced levels of 5-HT
[3]; raphe or forebrain
  effect on 5-HT levels when administered by itself: devoid of effect
[1]; 2 mg/kg s.c. co-administered with citalopram 10 μmol/kg s.c., P=0.021, t=75 to t=135
  5-HT levels compared to citalopram treatment alone: enhanced levels of 5-HT
[1]; administered either centrally into the hippocampus or systemically, with citalopram
  effects of citalopram on extracellular 5-HT levels: significantly increase
[1]; local infusion (50 μM) in ventral hippocampus, P=0.26
  effect on basal levels of 5-HT: did not have any effect
[1]; local phaclofen 50 μM, citalopram 10 μmol/kg s.c., P=0.0068, significant from t=75 to 150 min
  5-HT levels after systemic citalopram during local administration: augmented levels of 5-HT

## NCC(CC(=O)O)c1ccc(Cl)cc1 (centres unmarked) [baclofen]
[3]; forebrain
  5-HT in the forebrain: reduction
[3]; raphe
  5-HT in the raphe: decrease

## CN1CCc2cc3c(cc2[C@H]1[C@@H]1OC(=O)c2c1ccc1c2OCO1)OCO3 [bicuculline, (+)-Bicuculline]
[1]; local administration of 50 μM in ventral hippocampus, significant from t=45 to 90 min
  increase of serotonin levels: about 150%

## NCc1cc(=O)[nH]o1 [muscimol]
[3]; raphe nuclei
  5-HT cell activity & 5-HT release: reduced
